Results from PMC12040169 (PLOS Biology, 2025).
≈ marks a conversion by molar mass, not a printed value.

Key:
in vitro = experiment: in vitro; parameters: Viability of infected HeLa host cells, resazurin conversion, bulk resorufin fluorescence relative to DMSO; conditions: human, hela cells; bulk resorufin, mean of 3
[1] = system: T1, CTL2-GFP (C. trachomatis L2/434/Bu, GFP-expressing); experiment: microbe, parasite or virus in culture; parameters: C. trachomatis growth in HeLa, dose-response, mean of bulk GFP fluorescence and imaged total inclusion area; conditions: Chlamydia trachomatis, HeLa, 28.5 h; mean of GFP and inclusion area
T1 construct: L2/434/Bu, GFP-expressing
Procedure, shortened: (§1)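 First, bulk GFP and resorufin signals were measured in compound-treated infected cultures. Cells were next fixed and stained with Hoechst. Finally, high-content imaging quantified chlamydial inclusions (area, number) and host nuclei, and MICs were calculated.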

[2] = system: T1, CTL2-GFP (C. trachomatis L2/434/Bu, GFP-expressing); experiment: microbe, parasite or virus in culture; parameters: species or system HeLa; C. trachomatis growth in HeLa, dose-response, mean of bulk GFP fluorescence and imaged total inclusion area; conditions: Chlamydia trachomatis, 28.5 h; mean of GFP and inclusion area
Procedure, shortened: as §1

C1=C(CCNCCc2ccccc2)c2ccccc2C12CCCC2 [c51e]
viability at 28.5 h, 0.000416667 µM (in vitro): 99.8%
viability at 28.5 h, 0.00125 µM (in vitro): 96.2%
viability at 28.5 h, 0.00375 µM (in vitro): 101%
viability at 28.5 h, 0.0123333 µM (in vitro): 98.1%
viability at 28.5 h, 0.037 µM (in vitro): 101%
viability at 28.5 h, 0.111 µM (in vitro): 97.8%
viability at 28.5 h, 0.333 µM (in vitro): 99.6%
viability at 28.5 h, 1 µM (in vitro): 102%
viability at 28.5 h, 3 µM (in vitro): 100%
viability at 28.5 h, 10 µM (in vitro): 106%
viability at 28.5 h, 30 µM (in vitro): 96.5%
IC50 [1]: 8.3 µM
MIC [2]: 9.36 µM (≈ 2.97 µg/mL)

Cc1noc(-c2ccc3c(c2O)OCCO3)c1-c1ccc(Cl)cc1 [c20e]
viability at 28.5 h, 0.000416667 µM (in vitro): 99.7%
viability at 28.5 h, 0.00125 µM (in vitro): 97%
viability at 28.5 h, 0.00375 µM (in vitro): 93.1%
viability at 28.5 h, 0.0123333 µM (in vitro): 91.8%
viability at 28.5 h, 0.037 µM (in vitro): 94.3%
viability at 28.5 h, 0.111 µM (in vitro): 86.5%
viability at 28.5 h, 0.333 µM (in vitro): 88.7%
viability at 28.5 h, 1 µM (in vitro): 86.1%
viability at 28.5 h, 3 µM (in vitro): 83.4%
viability at 28.5 h, 10 µM (in vitro): 85.9%
viability at 28.5 h, 30 µM (in vitro): 75.6%
IC50 [1]: 1.39 µM
MIC [2]: 2.69 µM (≈ 0.926 µg/mL)

Fc1cccc(F)c1OCCOc1nc(N2CCNCC2)ccc1C(F)(F)F [c21e]
viability at 28.5 h, 0.000416667 µM (in vitro): 85.4%
viability at 28.5 h, 0.00125 µM (in vitro): 87.7%
viability at 28.5 h, 0.00375 µM (in vitro): 84%
viability at 28.5 h, 0.0123333 µM (in vitro): 87.6%
viability at 28.5 h, 0.037 µM (in vitro): 84.7%
viability at 28.5 h, 0.111 µM (in vitro): 89.9%
viability at 28.5 h, 0.333 µM (in vitro): 90.4%
viability at 28.5 h, 1 µM (in vitro): 93.9%
viability at 28.5 h, 3 µM (in vitro): 87.9%
viability at 28.5 h, 10 µM (in vitro): 91.3%
viability at 28.5 h, 30 µM (in vitro): 0%
IC50 [1]: 1.7 µM
MIC [2]: 8.28 µM (≈ 3.34 µg/mL)

Oc1ccccc1Nc1nc(NC2CCCC2)c2ccccc2n1 [c49e]
viability at 28.5 h, 0.000416667 µM (in vitro): 84.4%
viability at 28.5 h, 0.00125 µM (in vitro): 94.9%
viability at 28.5 h, 0.00375 µM (in vitro): 87.6%
viability at 28.5 h, 0.0123333 µM (in vitro): 90%
viability at 28.5 h, 0.037 µM (in vitro): 86%
viability at 28.5 h, 0.111 µM (in vitro): 91.7%
viability at 28.5 h, 0.333 µM (in vitro): 87.8%
viability at 28.5 h, 1 µM (in vitro): 90.1%
viability at 28.5 h, 3 µM (in vitro): 84.7%
viability at 28.5 h, 10 µM (in vitro): 90.6%
viability at 28.5 h, 30 µM (in vitro): 77.3%
IC50 [1]: 7.48 µM
MIC [2]: 10.8 µM (≈ 3.45 µg/mL)

CCOc1ccc2nc(NC(=N)N)nc(C)c2c1 [c37e]
viability at 28.5 h, 0.000416667 µM (in vitro): 85.5%
viability at 28.5 h, 0.00125 µM (in vitro): 89.1%
viability at 28.5 h, 0.00375 µM (in vitro): 85.5%
viability at 28.5 h, 0.0123333 µM (in vitro): 89%
viability at 28.5 h, 0.037 µM (in vitro): 86.7%
viability at 28.5 h, 0.111 µM (in vitro): 91.1%
viability at 28.5 h, 0.333 µM (in vitro): 88.4%
viability at 28.5 h, 1 µM (in vitro): 87.7%
viability at 28.5 h, 3 µM (in vitro): 84.7%
viability at 28.5 h, 10 µM (in vitro): 79%
viability at 28.5 h, 30 µM (in vitro): 55.2%
IC50 [1]: 4.22 µM
MIC [2]: 11.4 µM (≈ 2.8 µg/mL)

O=[N+]([O-])c1ccc2[nH]c3c(c2c1)CCCC3NC1CCN(CCc2ccccc2)CC1 (stereo not drawn) [c23e]
viability at 28.5 h, 0.000416667 µM (in vitro): 96.2%
viability at 28.5 h, 0.00125 µM (in vitro): 90.3%
viability at 28.5 h, 0.00375 µM (in vitro): 91.9%
viability at 28.5 h, 0.0123333 µM (in vitro): 88%
viability at 28.5 h, 0.037 µM (in vitro): 86.6%
viability at 28.5 h, 0.111 µM (in vitro): 87.4%
viability at 28.5 h, 0.333 µM (in vitro): 90.5%
viability at 28.5 h, 1 µM (in vitro): 83.9%
viability at 28.5 h, 3 µM (in vitro): 93.2%
viability at 28.5 h, 10 µM (in vitro): 76%
viability at 28.5 h, 30 µM (in vitro): 6.18%
IC50 [1]: 2.18 µM
MIC [2]: 4 µM (≈ 1.68 µg/mL)

Cc1cccc(-c2ccc(CC3(C(N)=O)CCN(C(=O)CCc4ccccc4)CC3)cc2)c1 [c38e]
viability at 28.5 h, 0.000416667 µM (in vitro): 101%
viability at 28.5 h, 0.00125 µM (in vitro): 97.3%
viability at 28.5 h, 0.00375 µM (in vitro): 96.8%
viability at 28.5 h, 0.0123333 µM (in vitro): 101%
viability at 28.5 h, 0.037 µM (in vitro): 98.4%
viability at 28.5 h, 0.111 µM (in vitro): 98.7%
viability at 28.5 h, 0.333 µM (in vitro): 94.7%
viability at 28.5 h, 1 µM (in vitro): 103%
viability at 28.5 h, 3 µM (in vitro): 99.3%
viability at 28.5 h, 10 µM (in vitro): 104%
viability at 28.5 h, 30 µM (in vitro): 114%
IC50 [1]: 4.84 µM
MIC [2]: 8.43 µM (≈ 3.71 µg/mL)

O=C(NCCCn1ccnc1)c1cc(-c2cccc(Br)c2)nc2ccccc12 [c50e]
viability at 28.5 h, 0.000416667 µM (in vitro): 90.5%
viability at 28.5 h, 0.00125 µM (in vitro): 90.8%
viability at 28.5 h, 0.00375 µM (in vitro): 90.1%
viability at 28.5 h, 0.0123333 µM (in vitro): 87.8%
viability at 28.5 h, 0.037 µM (in vitro): 86.1%
viability at 28.5 h, 0.111 µM (in vitro): 90.6%
viability at 28.5 h, 0.333 µM (in vitro): 85.4%
viability at 28.5 h, 1 µM (in vitro): 89.1%
viability at 28.5 h, 3 µM (in vitro): 86.3%
viability at 28.5 h, 10 µM (in vitro): 90%
viability at 28.5 h, 30 µM (in vitro): 84.8%
IC50 [1]: 7.95 µM
MIC [2]: 9.27 µM (≈ 4.03 µg/mL)

CCC1C(c2ccc(C)cc2)=CCC(C(=O)NCCCN(C)C)C1C (stereo not drawn) [c30e]
viability at 28.5 h, 0.000416667 µM (in vitro): 91.8%
viability at 28.5 h, 0.00125 µM (in vitro): 95.1%
viability at 28.5 h, 0.00375 µM (in vitro): 91.6%
viability at 28.5 h, 0.0123333 µM (in vitro): 87.1%
viability at 28.5 h, 0.037 µM (in vitro): 90.5%
viability at 28.5 h, 0.111 µM (in vitro): 97.1%
viability at 28.5 h, 0.333 µM (in vitro): 87.9%
viability at 28.5 h, 1 µM (in vitro): 92.4%
viability at 28.5 h, 3 µM (in vitro): 89.5%
viability at 28.5 h, 10 µM (in vitro): 94.4%
viability at 28.5 h, 30 µM (in vitro): 55.5%
IC50 [1]: 3.07 µM
MIC [2]: 8.94 µM (≈ 3.06 µg/mL)
